Data reported in patent US20150105252A1, “SUBSTITUTED PYRAZOLES AS HERBICIDES” (E I DU PONT DE NEMOURS AND COMPANY, priority 2013, published 2015).

Key:
[1] = system: barnyardgrass; assay: Test B flood; assay type: in vivo, Echinochloa crus-galli; conditions: 250 g ai/ha, visual rating on 0 to 100 scale (0 no effect, 100 complete control), 13 to 15 days
How it was run: (§1)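 At two leaves, seedlings received the test compound via the paddy water, pots having been flooded 3 cm over the soil surface and kept so. Greenhouse-held for 13 to 15 days, then judged by eye against controls on a scale running 0 (no effect) to 100 (complete control).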

[2] = system: corn; assay: Test A preemergence; assay type: in vivo, Zea mays; conditions: preemergence; for Corn plant response rating (0 to 100 scale): 125 g ai/ha, visual injury approx. 10 days after treatment; for Corn plant response rating: 500 g ai/ha, visual injury after approx. 10 days, 0 to 100 scale (0 no effect, 100 complete control)
How it was run: (§2)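 Both timings tested concurrently in loam/sand soil: preemergence by directed soil spray, postemergence on plants of 2–10 cm at the one- to two-leaf stage. Greenhouse holding period was approximately 10 days before visual injury assessment (0–100, 0 = no effect).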

[3] = system: sedge, umbrella; assay: Test B flood; assay type: in vivo, Cyperus difformis; conditions: 250 g ai/ha, visual rating on 0 to 100 scale (0 no effect, 100 complete control), 13 to 15 days
How it was run: as §1

[4] = system: pigweed; assay: Test A postemergence; assay type: in vivo, Amaranthus retroflexus; conditions: Postemergence
How it was run: as §2

[5] = system: wheat; assay: Test A postemergence; assay type: in vivo, Triticum aestivum; conditions: Postemergence
How it was run: as §2

[6] = system: rice; assay: Test C flooded paddy test; assay type: in vivo, Oryza sativa; conditions: Flood
How it was run: (§3)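 Pots were flooded to 3 cm above the soil surface at treatment, compound applied directly to the paddy water, and that depth held throughout. Plants were kept in a greenhouse for 13 to 15 days, then visually rated against untreated controls.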

[7] = system: velvetleaf; assay: Test A postemergence; assay type: in vivo, Abutilon theophrasti; conditions: Postemergence
How it was run: as §2

[8] = system: foxtail, giant; assay: Test A preemergence; assay type: in vivo, Setaria faberii; conditions: preemergence; for Foxtail, Giant plant response rating (0 to 100 scale): 125 g ai/ha, visual injury approx. 10 days after treatment; for Foxtail, Giant plant response rating: 500 g ai/ha, visual injury after approx. 10 days, 0 to 100 scale (0 no effect, 100 complete control)
How it was run: as §2

[9] = system: wheat; assay: Test A preemergence; assay type: in vivo, Triticum aestivum; conditions: preemergence; for Wheat plant response rating (0 to 100 scale): 125 g ai/ha, visual injury approx. 10 days after treatment
How it was run: as §2

[10] = system: velvetleaf; assay: Test A preemergence; assay type: in vivo, Abutilon theophrasti; conditions: preemergence; for Velvetleaf plant response rating (0 to 100 scale): 125 g ai/ha, visual injury approx. 10 days after treatment
How it was run: as §2

[11] = system: morningglory; assay: Test A postemergence; assay type: in vivo, Ipomoea spp.; conditions: Postemergence
How it was run: as §2

[12] = system: barnyardgrass; assay: Test C flooded paddy test; assay type: in vivo, Echinochloa crus-galli; conditions: Flood
How it was run: as §3

[13] = system: foxtail, giant; assay: Test A postemergence; assay type: in vivo, Setaria faberii
How it was run: as §2

[14] = system: pigweed; assay: Test A preemergence; assay type: in vivo, Amaranthus retroflexus; conditions: preemergence; for Pigweed plant response rating (0 to 100 scale): 125 g ai/ha, visual injury approx. 10 days after treatment
How it was run: as §2

[15] = system: ducksalad; assay: Test B flood; assay type: in vivo, Heteranthera limosa; conditions: 250 g ai/ha, visual rating on 0 to 100 scale (0 no effect, 100 complete control), 13 to 15 days
How it was run: as §1

[16] = system: corn; assay: Test A postemergence; assay type: in vivo, Zea mays
How it was run: as §2

[17] = system: crabgrass, large; assay: Test A preemergence; assay type: in vivo, Digitaria sanguinalis; conditions: preemergence; for Crabgrass, Large plant response rating (0 to 100 scale): 125 g ai/ha, visual injury approx. 10 days after treatment; for Crabgrass, Large plant response rating: 500 g ai/ha, visual injury after approx. 10 days, 0 to 100 scale (0 no effect, 100 complete control)
How it was run: as §2

[18] = system: sedge, umbrella; assay: Test C flooded paddy test; assay type: in vivo, Cyperus difformis; conditions: Flood
How it was run: as §3

[19] = system: morningglory; assay: Test A preemergence; assay type: in vivo, Ipomoea spp.; conditions: preemergence; for Morningglory plant response rating (0 to 100 scale): 125 g ai/ha, visual injury approx. 10 days after treatment
How it was run: as §2

[20] = system: barnyardgrass; assay: Test A postemergence; assay type: in vivo, Echinochloa crus-galli
How it was run: as §2

[21] = system: crabgrass, large; assay: Test A postemergence; assay type: in vivo, Digitaria sanguinalis
How it was run: as §2

[22] = system: barnyardgrass; assay: Test A preemergence; assay type: in vivo, Echinochloa crus-galli; conditions: preemergence; for Barnyardgrass plant response rating (0 to 100 scale, 0 is no effect, 100 is complete control): 125 g ai/ha, visual injury approx. 10 days after treatment; for Barnyardgrass plant response rating: 500 g ai/ha, visual injury after approx. 10 days, 0 to 100 scale (0 no effect, 100 complete control)
How it was run: as §2

[23] = system: rice; assay: Test B flood; assay type: in vivo, Oryza sativa; conditions: 250 g ai/ha, visual rating on 0 to 100 scale (0 no effect, 100 complete control), 13 to 15 days
How it was run: as §1

[24] = system: ducksalad; assay: Test C flooded paddy test; assay type: in vivo, Heteranthera limosa; conditions: Flood
How it was run: as §3

[25] = 125 g ai/ha, 0 to 100 scale, 0 no effect, 100 complete control
[26] = 500 g ai/ha, 0 to 100 scale (0 no effect, 100 complete control)
[27] = 31 g ai/ha, scale 0 to 100 (0 no effect, 100 complete control)
[28] = 62 g ai/ha, scale 0 to 100 (0 no effect, 100 complete control)
[29] = 125 g ai/ha, scale 0 to 100 (0 no effect, 100 complete control)
[30] = Postemergence, 500 g ai/ha, 0 to 100 scale (0 no effect, 100 complete control)
[31] = postemergence, 125 g ai/ha, about 10 days, visual rating on 0 to 100 scale (0 no effect, 100 complete control)
[32] = 500 g ai/ha, visual injury after approx. 10 days, 0 to 100 scale (0 no effect, 100 complete control)

Q: `CCc1cc(C(=O)NC)nn1Cc1ccnc(C(F)(F)F)c1` [Compound 204] was tested. Which “Plant response rating, Barnyardgrass” value [1] did it give?
A: 0

Q: And the “Corn plant response rating (0 to 100 scale)” value [2]?
A: 0

Q: And the “Corn plant response rating” value [2]?
A: 10

Q: What about the “Plant response rating, Sedge, Umbrella” value [3] of the same compound?
A: 90

Q: What about the “Pigweed plant response rating” value [4, 25] of the same compound?
A: 90

Q: And the “Pigweed plant response rating” value [4, 26]?
A: 90

Q: And the “Wheat plant response rating” value [5, 25]?
A: 0

Q: And the “Wheat plant response rating” value [5, 26]?
A: 10

Q: What about the “Plant response rating, Rice” value [6, 27] of the same compound?
A: 0

Q: What about the “Plant response rating, Rice” value [6, 28] of the same compound?
A: 0

Q: And the “Plant response rating, Rice” value [6, 29]?
A: 0

Q: And the “Plant response rating, Rice” value ([6]; 250 g ai/ha, scale 0 to 100)?
A: 0

Q: What about the “Velvetleaf plant response rating” value [7, 25] of the same compound?
A: 40

Q: What about the “Velvetleaf plant response rating” value [7, 26] of the same compound?
A: 50

Q: What about the “Foxtail, Giant plant response rating (0 to 100 scale)” value [8] of the same compound?
A: 50

Q: And the “Foxtail, Giant plant response rating” value [8]?
A: 100

Q: What about the “Wheat plant response rating (0 to 100 scale)” value [9] of the same compound?
A: 0

Q: What about the “Velvetleaf plant response rating (0 to 100 scale)” value [10] of the same compound?
A: 10

Q: And the “Morningglory plant response rating” value [11, 25]?
A: 80

Q: And the “Morningglory plant response rating” value [11, 26]?
A: 90

Q: And the “Plant response rating, Barnyardgrass” value [12, 27]?
A: 0

Q: And the “Plant response rating, Barnyardgrass” value [12, 28]?
A: 0

Q: What about the “Plant response rating, Barnyardgrass” value [12, 29] of the same compound?
A: 0

Q: What about the “Plant response rating, Barnyardgrass” value ([12]; 250 g ai/ha, scale 0 to 100) of the same compound?
A: 0

Q: What about the “Foxtail, Giant plant response rating” value [13, 30] of the same compound?
A: 70

Q: And the “Foxtail, Giant plant response rating” value [13, 31]?
A: 10

Q: What about the “Pigweed plant response rating (0 to 100 scale)” value [14] of the same compound?
A: 100

Q: And the “Plant response rating, Ducksalad” value [15]?
A: 95

Q: And the “Corn plant response rating” value [16, 30]?
A: 30

Q: And the “Corn plant response rating” value [16, 31]?
A: 10

Q: And the “Crabgrass, Large plant response rating (0 to 100 scale)” value [17]?
A: 100

Q: And the “Crabgrass, Large plant response rating” value [17]?
A: 100

Q: And the “Plant response rating, Sedge, Umbrella” value [18, 27]?
A: 0

Q: What about the “Plant response rating, Sedge, Umbrella” value [18, 28] of the same compound?
A: 60

Q: And the “Plant response rating, Sedge, Umbrella” value [18, 29]?
A: 80

Q: And the “Plant response rating, Sedge, Umbrella” value ([18]; 250 g ai/ha, scale 0 to 100)?
A: 80

Q: What about the “Morningglory plant response rating (0 to 100 scale)” value [19] of the same compound?
A: 30

Q: What about the “Barnyardgrass plant response rating” value [20, 30] of the same compound?
A: 50

Q: And the “Barnyardgrass plant response rating” value [20, 31]?
A: 10

Q: And the “Crabgrass, Large plant response rating” value [21, 30]?
A: 80

Q: And the “Crabgrass, Large plant response rating” value [21, 31]?
A: 10

Q: What about the “Barnyardgrass plant response rating (0 to 100 scale, 0 is no effect, 100 is complete control)” value [22] of the same compound?
A: 0

Q: And the “Barnyardgrass plant response rating” value [22]?
A: 80

Q: And the “Plant response rating, Rice” value [23]?
A: 0

Q: What about the “Plant response rating, Ducksalad” value [24, 27] of the same compound?
A: 0

Q: What about the “Plant response rating, Ducksalad” value [24, 28] of the same compound?
A: 0

Q: And the “Plant response rating, Ducksalad” value [24, 29]?
A: 50

Q: And the “Plant response rating, Ducksalad” value ([24]; 250 g ai/ha, scale 0 to 100)?
A: 90

Q: What does the source list for `CCCCNC(=O)c1cc(I)n(Cc2cccc(C(F)(F)F)c2)n1` [Compound 182]?
A: Plant response rating, Barnyardgrass [1]: 0; Corn plant response rating (0 to 100 scale) [2]: 0; Corn plant response rating [2]: 0; Plant response rating, Sedge, Umbrella [3]: 0; Pigweed plant response rating [4, 26]: 90; Wheat plant response rating [5, 26]: 0; Velvetleaf plant response rating [7, 26]: 70; Foxtail, Giant plant response rating (0 to 100 scale) [8]: 0; Foxtail, Giant plant response rating [8]: 50; Wheat plant response rating (0 to 100 scale) [9]: 0; Wheat plant response rating [9, 32]: 0; Velvetleaf plant response rating (0 to 100 scale) [10]: 0; Velvetleaf plant response rating [10, 32]: 0; Morningglory plant response rating [11, 26]: 30; Foxtail, Giant plant response rating [13, 30]: 20; Foxtail, Giant plant response rating [13, 31]: 0; Pigweed plant response rating (0 to 100 scale) [14]: 0; Pigweed plant response rating [14, 32]: 30; Plant response rating, Ducksalad [15]: 0; Corn plant response rating [16, 30]: 20; Corn plant response rating [16, 31]: 0; Crabgrass, Large plant response rating (0 to 100 scale) [17]: 0; Crabgrass, Large plant response rating [17]: 60; Morningglory plant response rating (0 to 100 scale) [19]: 0; Morningglory plant response rating [19, 32]: 0; Barnyardgrass plant response rating [20, 30]: 30; Barnyardgrass plant response rating [20, 31]: 20; Crabgrass, Large plant response rating [21, 30]: 30; Crabgrass, Large plant response rating [21, 31]: 10; Barnyardgrass plant response rating (0 to 100 scale, 0 is no effect, 100 is complete control) [22]: 0; Barnyardgrass plant response rating [22]: 0; Plant response rating, Rice [23]: 0
